Data taken from patent US11306064B2, “Benzothia(di)azepine compounds and their use as bile acid modulators” (Albireo AB, priority 2018, dated 2022).

What was measured:
Human LBAT = target: T1, Human LBAT (Homo sapiens, UniProt Q14973); experiment: LBAT (h/m) assay: 3H-taurocholic acid uptake in human LBAT-overexpressing cells; assay type: cell-based; conditions: 0.3 μM 3H-taurocholic acid and 7.5 μM cold taurocholic acid, 20 minutes, read-out: hLBAT IC50
T1 construct: expressed in transfected cells; kept under Geneticin selection
T1 sequence (Q14973 1-349): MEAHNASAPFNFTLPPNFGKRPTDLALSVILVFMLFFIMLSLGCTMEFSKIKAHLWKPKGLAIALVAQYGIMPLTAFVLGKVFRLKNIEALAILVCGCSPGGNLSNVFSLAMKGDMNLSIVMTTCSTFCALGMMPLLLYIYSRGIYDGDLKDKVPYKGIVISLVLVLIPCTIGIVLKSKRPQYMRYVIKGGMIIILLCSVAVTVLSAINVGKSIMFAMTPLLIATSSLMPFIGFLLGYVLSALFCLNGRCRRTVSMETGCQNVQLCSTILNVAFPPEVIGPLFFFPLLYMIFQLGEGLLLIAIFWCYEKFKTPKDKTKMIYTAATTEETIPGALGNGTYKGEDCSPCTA
Outline: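 LBAT-overexpressing cells, serum-free MEM-alpha, 20 min at 37° C with inhibitor (3-fold, 10-point) plus 0.3 μM 3H-taurocholic acid and cold taurocholic acid (7.5 μM human; 25 μM mouse), 0.2% DMSO. Stopped on ice, washed with 1 mM unlabelled taurocholate; uptake by scintillation counting.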

[1] = Bioavailability studies in mice; assay type: in vivo; conditions: mouse; C57BL/6 mice; single intravenous dose 1 mg/kg vs single oral dose 10 mg/kg; plasma LC-MS/MS
Protocol: C57BL/6 mice of 8-9 weeks old were used. For each test compound, two groups of 3 animals each were used. One group was administered a single intravenous dose of 1 mg/kg (vehicle 100% DMSO) through the tail vein and the other group was administered a single oral dose of 10 mg/kg through gavage needle. The group that was administered an oral dose was fasted overnight. Blood samples were collected after 0.083, 0.25, 0.5, 1, 2, 4, 6, 8 and 24 hours following intravenous administration, and after 0.25, 0.5, 1, 2, 4, 6, 8 and 24 hours following oral administration. Blood samples were taken from saphenous vein. 0.2% EDTA was used as the anticoagulant. The samples were analyzed by a discovery grade bioanalytical method developed for the estimation of test compound in plasma, using an LC-MS/MS system.

HepaRG cells = experiment: HepaRG-based assay: 3H-taurocholic acid uptake in differentiated HepaRG cells; assay type: cell-based; conditions: Homo sapiens, HepaRG, 0.3 μM 3H-taurocholic acid and 7.5 μM cold taurocholic acid, 30 minutes
Outline: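 Differentiated HepaRG cells cultured 7 days post-seeding were exposed for 30 min at 37 °C to 0.3 μM 3H-taurocholic acid plus 7.5 μM cold taurocholic acid with inhibitor (3-fold dilutions, 0.2% DMSO). Uptake was stopped on ice, washed with 1 mM unlabelled taurocholic acid, and counted by scintillation.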

Human ASBT = target: T2, Human ASBT (Homo sapiens, UniProt Q12908); experiment: ASBT (h/m) assay: 3H-taurocholic acid uptake in human ASBT-overexpressing cells; assay type: cell-based; conditions: 0.25 μM 3H-taurocholic acid and 5 μM cold taurocholic acid, 20 minutes, read-out: hASBT IC50
T2 construct: expressed in transfected cells; kept under Puromycin selection
T2 sequence (Q12908 1-348): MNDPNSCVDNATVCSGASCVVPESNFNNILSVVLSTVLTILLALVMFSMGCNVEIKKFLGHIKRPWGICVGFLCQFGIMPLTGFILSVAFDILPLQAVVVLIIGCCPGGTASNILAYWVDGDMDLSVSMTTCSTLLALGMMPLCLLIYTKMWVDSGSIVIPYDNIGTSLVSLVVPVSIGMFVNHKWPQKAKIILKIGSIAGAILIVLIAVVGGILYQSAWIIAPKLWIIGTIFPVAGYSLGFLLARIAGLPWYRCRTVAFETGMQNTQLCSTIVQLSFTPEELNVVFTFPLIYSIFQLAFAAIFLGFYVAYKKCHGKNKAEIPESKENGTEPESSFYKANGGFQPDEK
Outline: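 ASBT-overexpressing cells, seeded 48 h earlier, took up 0.25 µM 3H-taurocholic acid plus 5 µM cold taurocholate for 20 min at 37 °C with inhibitor (10-point 3-fold series, top 10 µM, 0.2% DMSO). Ice stop, washes with cold 1 mM taurocholate in HEPES-HBSS pH 7.4, scintillation counting.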

For `CCCC[C@@]1(CC)CN(c2ccccc2)c2cc(SC)c(O/C=C(\F)C(=O)O)cc2S(=O)(=O)N1C` (single isomer, unassigned) [Example 99], the IC50 (Human LBAT) was 4.4 nM, the bioavailability [1] was 20% and the IC50 (HepaRG cells) was 325 nM.

Compound `CCCCC1(CCCC)CN(c2ccccc2)c2cc(SC)c(O/C=C(\C)C(=O)O)cc2S(=O)(=O)N1` [Example 74, (E)-3-((3,3-dibutyl-7-(methylthio)-1,1-dioxido-5-phenyl-2,3,4,5-tetrahydro-1,2,5-benzothiadiazepin-8-yl)oxy)-2-methylacrylic Acid] has an IC50 (Human LBAT) of 649 nM, an IC50 (HepaRG cells) of 3380 nM and an IC50 (Human ASBT) of 57 nM.

In the case of `CCCCC1(CCCC)CN(c2ccc(NS(C)(=O)=O)cc2)c2cc(SC)c(O/C=C/C(=O)O)cc2S(=O)(=O)C1` [Example 10, (E)-3-((3,3-dibutyl-5-(4-(methylsulfonamido)phenyl)-7-(methylthio)-1,1-dioxido-2,3,4,5-tetrahydro-1,5-benzothiazepin-8-yl)oxy)acrylic Acid], the IC50 (Human LBAT) is reported as 3980 nM, the IC50 (HepaRG cells) is reported as 4700 nM and the IC50 (Human ASBT) is reported as 1410 nM.

Compound `CCCCC1(CC)CN(c2ccccc2)c2cc(Cl)c(O/C=C(\F)C(=O)O)cc2S(=O)(=O)C1` (single isomer, unassigned) [Example 47, (Z)-3-((3-butyl-7-chloro-3-ethyl-1,1-dioxido-5-phenyl-2,3,4,5-tetrahydro-1,5-benzothiazepin-8-yl)oxy)-2-fluoroacrylic acid] has an IC50 (Human LBAT) of 25 nM, an IC50 (HepaRG cells) of 362 nM and an IC50 (Human ASBT) of 339 nM.

For `CCC1(CC)CN(c2ccccc2)c2cc(Br)c(O/C=C/C(=O)O)cc2S(=O)(=O)C1` [Example 55, (E)-3-((7-bromo-3,3-diethyl-1,1-dioxido-5-phenyl-2,3,4,5-tetrahydro-1,5-benzothiazepin-8-yl)oxy)acrylic Acid], the IC50 (Human LBAT) was 100 nM, the IC50 (HepaRG cells) was 328 nM and the IC50 (Human ASBT) was 487 nM.

In the case of `CCCCC1(CC)CN(c2ccccc2)c2cc(Br)c(O/C=C(\F)C(=O)O)cc2S(=O)(=O)N1C` (stereo not drawn) [Example 106, (Z)-3-((7-bromo-3-butyl-3-ethyl-2-methyl-1,1-dioxido-5-phenyl-2,3,4,5-tetrahydro-1,2,5-benzothiadiazepin-8-yl)oxy)-2-fluoroacrylic Acid], the IC50 (Human LBAT) is reported as 31 nM, the IC50 (HepaRG cells) is reported as 246 nM and the IC50 (Human ASBT) is reported as 673 nM.

For `CCC1(CC)CN(c2ccc(NCc3ccccc3)cc2)c2cc(SC)c(O/C=C(\F)C(=O)O)cc2S(=O)(=O)C1` [Example 66, (Z)-3-((5-(4-(benzylamino)phenyl)-3,3-diethyl-7-(methylthio)-1,1-dioxido-2,3,4,5-tetrahydro-1,5-benzothiazepin-8-yl)oxy)-2-fluoroacrylic Acid], the IC50 (Human LBAT) was 30 nM, the IC50 (HepaRG cells) was 518 nM and the IC50 (Human ASBT) was 2760 nM.

`CCCCC1(CC)CN(c2ccccc2)c2cc(Br)c(O/C=C(\F)C(=O)O)cc2S(=O)(=O)C1` (racemic) [Example 63, (Z)-3-((7-bromo-3-butyl-3-ethyl-1,1-dioxido-5-phenyl-2,3,4,5-tetrahydro-1,5-benzothiazepin-8-yl)oxy)-2-fluoroacrylic Acid] gave an IC50 (Human LBAT) of 10 nM, an IC50 (HepaRG cells) of 358 nM and an IC50 (Human ASBT) of 35 nM.

Work on `CCCCC1(CC)CN(c2ccccc2)c2cc(SC)c(O/C=C(\F)C(=O)O)cc2S(=O)(=O)C1` (racemic) [Example 41, (Z)-3-((3-butyl-3-ethyl-7-(methylthio)-1,1-dioxido-5-phenyl-2,3,4,5-tetrahydro-1,5-benzothiazepin-8-yl)oxy)-2-fluoroacrylic Acid] yielded an IC50 (Human LBAT) of 8.3 nM, an IC50 (HepaRG cells) of 336 nM and an IC50 (Human ASBT) of 26 nM.

`CCCCC1(CCCC)CN(c2ccc(Br)cc2)c2cc(SC)c(O/C=C/C(=O)O)cc2S(=O)(=O)C1` [Example 15, (E)-3-((5-(4-bromophenyl)-3,3-dibutyl-7-(methylthio)-1,1-dioxido-2,3,4,5-tetrahydro-1,5-benzothiazepin-8-yl)oxy)acrylic Acid] gave an IC50 (Human LBAT) of 532 nM, an IC50 (HepaRG cells) of 2250 nM and an IC50 (Human ASBT) of 253 nM.

In the case of `CCCCC1(CCCC)CN(c2ccccc2)c2cc(CC)c(O/C=C/C(=O)O)cc2S(=O)(=O)C1` [Example 12, (E)-3-((3,3-dibutyl-7-ethyl-1,1-dioxido-5-phenyl-2,3,4,5-tetrahydro-1,5-benzothiazepin-8-yl)oxy)acrylic Acid], the IC50 (Human LBAT) is reported as 393 nM, the IC50 (HepaRG cells) is reported as 2610 nM and the IC50 (Human ASBT) is reported as 482 nM.
